We go through ten compounds from ChEMBL document CHEMBL1201862, “PubChem BioAssay data set” (2004).

Each structure is given as a SMILES string.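 All cell lines were grown in 96-well plates and treated with compound for 48 hours. Abbreviation: GI50, concentration required for 50% inhibition of growth.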 Active and inactive are the calls of the source. No stated cut-off is given here; in the data, active = GI50 up to about 1.1 µM and inactive = higher. Where only a bound is given, the exact number is not on record here.

What all share (test): NCI-60 cell line screen, 48 h
Assay [1] deals with ACHN.
Assay [2] has as its system BT-549.
The subject of assay [3] is COLO 205.
The test system of assay [4] is HL-60.
Assay [5] concerns HOP-92.
Assay [6] has as its system LOX IMVI.
The subject of assay [7] is M14.
The test system of assay [8] is MOLT-4.
Assay [9] has as its system NCI-H23.
Assay [10] deals with NCI-H522.
Assay [11] deals with NCI/ADR-RES.
Assay [12] relates to OVCAR-4.
Assay [13] deals with OVCAR-8.
The subject of assay [14] is RPMI-8226.
For assay [15], the system named is RXF 393.
Assay [16] has as its system SK-MEL-2.
For assay [17], the system named is SR.
For assay [18], the system named is SW-620.
Assay [19] has as its system U-251.
For assay [20], the system named is UACC-257.

As for `O=C1C(Cl)=C(N2CCC[C@@H]2CO)C(=O)c2c(O)ccc(O)c21`, the GI50 in assay [1] is 1.6 µM (inactive); in assay [2], 1.9 µM (inactive); in [3], 1.55 µM (inactive); in [4] it was 0.485 µM (active); in assay [5], 1.66 µM (inactive); in [6], 1.47 µM (inactive). Moreover, the GI50 in assay [7] was 1.67 µM (inactive); in assay [8], 0.269 µM (active); in assay [9], 1.64 µM (inactive); in assay [10] it was 1.12 µM (active); in assay [11], 2.41 µM (inactive); in [12], 1.76 µM (inactive). Also, the GI50 in assay [13] was 2 µM (inactive); in assay [14], 0.395 µM (active); in assay [15], 1.6 µM (inactive); in assay [16], 1.57 µM (inactive); in assay [17], 2.18 µM (inactive); in assay [18] it was 1.4 µM (inactive). Besides, the GI50 in assay [19] was 1.83 µM (inactive); in assay [20], 1.76 µM (inactive).

Take `Nn1c(Nc2ccc(S(=O)(=O)Nc3ncccn3)cc2)nnc(/C=C/c2c(O)ccc3ccccc23)c1=O`: the GI50 in assay [1] is 25.8 µM (inactive); in assay [2], 22.3 µM (inactive); in assay [4] it was 20.6 µM (inactive); in assay [5], 66.2 µM (inactive); in [6], 30.3 µM (inactive); in [7], 29 µM (inactive). Further, the GI50 in assay [8] is > 100 µM (inactive); in assay [9], 19.8 µM (inactive); in assay [10], 34.3 µM (inactive); in assay [11] it was 32.7 µM (inactive); in [12] it was 24.5 µM (inactive); in assay [13], 34.6 µM (inactive). Moreover, the GI50 was 34.1 µM (inactive) in assay [14]; 26.2 µM (inactive) in assay [15]; 18.5 µM (inactive) in assay [16]; 23.4 µM (inactive) in [17]; 31.8 µM (inactive) in [18]; 31.9 µM (inactive) in [19]. The GI50 in assay [20] is 20.1 µM (inactive).

Turning to `COc1nc(C#CCCCC#N)nc(OC)n1`, the GI50 was 8.93 µM (inactive) in assay [1]; 15.9 µM (inactive) in [2]; 29.9 µM (inactive) in assay [3]; 4.13 µM (inactive) in assay [4]; 2.08 µM (inactive) in assay [6]; 22.2 µM (inactive) in [7]. For the same compound, the GI50 in assay [8] is 14.4 µM (inactive); in assay [9], 13.8 µM (inactive); in assay [10], 14.2 µM (inactive); in [11], 28.5 µM (inactive); in assay [12], 3.82 µM (inactive); in assay [13], 21.2 µM (inactive). The GI50 in assay [15] was 15.6 µM (inactive); in [16], 16 µM (inactive); in [17], 7.38 µM (inactive); in assay [18], 15 µM (inactive); in assay [19] it was 13.4 µM (inactive); in assay [20] it was 18.9 µM (inactive).

Consider `Cc1ccc(C(=N)c2ccccc2Cc2cccc3ccccc23)c2ccccc12`, for which the GI50 was > 100 µM (inactive) in assay [1]; > 100 µM (inactive) in assay [2]; 22.1 µM (inactive) in assay [3]; 44.1 µM (inactive) in assay [4]; > 100 µM (inactive) in assay [5]; 80.2 µM (inactive) in assay [6]. In addition, the GI50 in assay [7] is 32.3 µM (inactive); in [8], 58.7 µM (inactive); in assay [9], 95.3 µM (inactive); in assay [10], 56.5 µM (inactive); in [11] it was > 100 µM (inactive); in assay [12] it was > 100 µM (inactive). Moreover, the GI50 was > 100 µM (inactive) in [13]; > 100 µM (inactive) in [15]; > 100 µM (inactive) in assay [16]; 41.6 µM (inactive) in [17]; 71 µM (inactive) in assay [18]; > 100 µM (inactive) in [19]. Besides, the GI50 in [20] is 33.1 µM (inactive).

On to `Clc1cc(Cl)cc(/N=C/C=C/Nc2cc(Cl)cc(Cl)c2)c1`, for which the GI50 in [1] was 20.1 µM (inactive); in assay [2], 43.3 µM (inactive); in assay [3], 16.5 µM (inactive); in assay [4], 19.1 µM (inactive); in [5] it was 30.8 µM (inactive); in assay [7] it was 22.3 µM (inactive). Besides, the GI50 is 19.8 µM (inactive) in assay [8]; 14.2 µM (inactive) in assay [9]; 14.7 µM (inactive) in assay [10]; 16.4 µM (inactive) in assay [11]; 14.6 µM (inactive) in assay [12]; 20.4 µM (inactive) in assay [13]. The GI50 is 24.5 µM (inactive) in [14]; 17.3 µM (inactive) in assay [15]; 19.9 µM (inactive) in assay [16]; 31.8 µM (inactive) in [17]; 19 µM (inactive) in assay [18]; 17.6 µM (inactive) in assay [19]. Further, in [20], the GI50 is 33.7 µM (inactive).

As for `Oc1ccc(C(O)(c2ccccc2)c2ccccc2)c2ccccc12`, the GI50 was 1.77 µM (inactive) in assay [1]; 3.85 µM (inactive) in assay [2]; 3.44 µM (inactive) in assay [3]; 2.93 µM (inactive) in assay [4]; < 0.01 µM (active) in assay [5]; 1.25 µM (inactive) in assay [6]. For the same compound, the GI50 in assay [7] was 2.34 µM (inactive); in assay [8] it was 3.14 µM (inactive); in [9], 2.79 µM (inactive); in [10], 2.42 µM (inactive); in [11] it was 2.1 µM (inactive); in assay [12], 5.75 µM (inactive). Moreover, the GI50 in [13] is 2.42 µM (inactive); in assay [15], 3.75 µM (inactive); in assay [16], 2.4 µM (inactive); in [17] it was 2.5 µM (inactive); in assay [18] it was 2.64 µM (inactive); in assay [19], 1.45 µM (inactive). The GI50 in assay [20] is 6.85 µM (inactive).

In the case of `O=S(=O)(c1ccccc1)C1CN(Cc2ccccc2)CCN(Cc2ccccc2)C1`, the GI50 in assay [1] is 39.4 µM (inactive); in [2], 80.5 µM (inactive); in assay [3], 30 µM (inactive); in assay [4] it was 5.92 µM (inactive); in assay [6], 6.25 µM (inactive); in assay [7], 24.2 µM (inactive). Further, the GI50 in assay [8] was 7.24 µM (inactive); in [9], 15.7 µM (inactive); in assay [10], 8 µM (inactive); in assay [11], 17.9 µM (inactive); in assay [12], 9.79 µM (inactive); in assay [13] it was 14.4 µM (inactive). Moreover, the GI50 in assay [14] is 4.55 µM (inactive); in assay [15], 10.4 µM (inactive); in [16], 36.8 µM (inactive); in assay [17], 7.76 µM (inactive); in [18] it was 24 µM (inactive); in assay [19] it was 33 µM (inactive). Besides, the GI50 in [20] was 26.6 µM (inactive).

`O=c1c2ccccc2oc2c1ccc1ncccc12`: the GI50 in assay [1] was 5.55 µM (inactive); in assay [2] it was 17.8 µM (inactive); in assay [3], 17.3 µM (inactive); in assay [4], 9.35 µM (inactive); in [5], 5.53 µM (inactive); in assay [6] it was 5.24 µM (inactive). Besides, the GI50 is 3.08 µM (inactive) in assay [8]; 16.2 µM (inactive) in assay [9]; 12.7 µM (inactive) in assay [10]; 10.4 µM (inactive) in [11]; 14.4 µM (inactive) in assay [12]; 11.8 µM (inactive) in assay [13]. Besides, the GI50 in [14] was 15.4 µM (inactive); in [15] it was 13.4 µM (inactive); in [16], 27.2 µM (inactive); in [17] it was 8.87 µM (inactive); in assay [18], 10.7 µM (inactive); in [20], 20.7 µM (inactive).

Take `COC(=O)NC(Nc1ccc(Cl)cc1Cl)(C(F)(F)F)C(F)(F)F`: the GI50 in assay [1] is 10.5 µM (inactive); in [2], 17.1 µM (inactive); in [3], 28.2 µM (inactive); in assay [4], 29.3 µM (inactive); in [5], 73.3 µM (inactive); in [6] it was 40.6 µM (inactive). For the same compound, the GI50 is 52.4 µM (inactive) in [7]; 37.8 µM (inactive) in [8]; > 100 µM (inactive) in assay [9]; 37.1 µM (inactive) in [10]; 86.5 µM (inactive) in [11]; 70.8 µM (inactive) in assay [13]. Further, the GI50 in assay [14] is 31.7 µM (inactive); in [15], > 100 µM (inactive); in [16], > 100 µM (inactive); in assay [17] it was 5.31 µM (inactive); in assay [18], 30.9 µM (inactive); in [19] it was 54.1 µM (inactive). Also, the GI50 in assay [20] was > 100 µM (inactive).

On to `CC1CCC(=O)C(C(=O)CC2CC(=O)NC(=O)C2)C1` (centres undefined), for which the GI50 in assay [1], in assay [2], in [3], in assay [4], in assay [5] and in [6] was > 100 µM (inactive) each time. Also, the GI50 in [7], in [8], in assay [9], in [11], in assay [12] and in assay [13] was > 100 µM (inactive) in each case. Also, the GI50 in assay [14], in assay [15], in [16], in assay [17], in assay [18] and in assay [19] was > 100 µM (inactive) in each case. Also, the GI50 in assay [20] was > 100 µM (inactive).
